Data on 97 compounds can be found in PubChem BioAssay AID1863 (Southern Research Specialized Biocontainment Screening …, 2009).

A word on the IC50: it is the point on the concentration scale where inhibition reaches its midpoint.

Molecules are shown by their SMILES. Where “and” joins values, the source holds several entries; their conditions need not be identical. Identical values can stand only once.

The assay relates to S. Typhimurium PhoP-regulated promoter GFP reporter, 4 h. The assay is described as follows: inhibitors of PhoP regulon expression, primary screen, Salmonella Typhimurium, GFP reporter (AID 1863).
In the case of `CCNC(=S)NNC(=O)c1ccccn1`, the IC50 is 62.6 µM.
On to `COc1cc(/C=C/[N+](=O)[O-])ccc1O`, for which the IC50 is 82.5 µM.
With `Nc1c(Cl)ncnc1N/N=C/c1ccccn1` the figure was 30.8 µM.
With `CCn1cc(C(=O)O)c(=O)c2cc(F)c(N3CCN(C(=S)NC(=O)c4ccc(F)c(F)c4)CC3)cc21` the figure was 46.6 µM.
In the case of `CCCCCCNC(=O)c1cn(CC)c2cc(N3CCN(C)CC3)c(F)cc2c1=O`, the IC50 was 23.2 µM.
As to `O=C(Cn1nc(CNc2ccc(Cl)cc2)[n+]2c1CCCCC2)c1ccc(Br)cc1`, the IC50 is 92.1 µM.
With `Nc1cccc2nc3ccccc3cc12` the figure was 58.2 µM; with `CCCCC(CC)CN=C(N)NC(N)=NCCCCCCN=C(N)NC(N)=NCC(CC)CCCC` (configuration not stated), 7.11 µM.
With `CCCCCCCCCn1c2c(c(=N)c3c1CCC3)CCCC2` the figure was 30.9 µM; with `Nc1cc(Cl)c2nonc2c1[N+](=O)[O-]`, 57.6 µM.
To `COc1ccccc1CNCCc1ccc(F)cc1` belongs 42.6 µM.
In the case of `Clc1ccc(C[n+]2cc(-c3ccc(Cl)cc3)n3c2CCC3)cc1`, the IC50 was 127 µM.
Turning to `CCCCCC(CC(=O)NO)C(=O)NC(C(=O)N1CCCC1CO)C(C)C` (configuration not stated), the IC50 is 12.7 µM.
With `CCCCN(CCCC)C(=O)c1cn(CC)c2cc(N3CCN(C)CC3)c(F)cc2c1=O` the figure was 11.4 µM; with `O=C1c2ccccc2NC(c2ccc(-c3ccc(Br)cc3)o2)N1O` (configuration not stated), 106 µM; with `NC(N)=N/N=C/c1ccc(OCc2ccc(Cl)cc2)cc1`, 39.4 µM.
With `CCCCCCCCCCOC(=O)Cn1c(COc2cccc(C)c2)[n+](C)c2ccccc21` the figure was 18.7 µM; with `Oc1c(Cl)cc(Cl)c2cccnc12`, 27.9 µM; with `COc1cc([N+](=O)[O-])cc(/C=N\NC(=O)C2COc3ccccc3O2)c1O` (configuration not stated), 129 µM.
To `Oc1c(C(Nc2ccccn2)c2ccccn2)ccc2cccnc12` (configuration not stated) belongs 91.6 µM; to `CCN1/C(=C/C=C/C=C/c2sc3ccccc3[n+]2CC)Sc2ccccc21`, 18.6 µM; to `CNC[C@H](Cc1ccccc1)NC[C@@H](Cc1cccc2ccccc12)NCCc1ccc(C)cc1`, 27.1 µM.
For `Cc1ccccc1OCc1n(CC(=O)OC2CC(C)CCC2C(C)C)c2ccccc2[n+]1C` (configuration not stated), the IC50 was 71 µM.
To `O=C(N/N=C/c1ccc([N+](=O)[O-])o1)c1ccc(O)cc1` belongs 33.3 µM.
Turning to `Nc1ncn(C2O[C@H](CO)[C@@H](O)[C@H]2O)c(=O)n1` (some centres not stated), the IC50 was 39.9 µM.
With `CCCCNC(=O)c1cn(CC)c2cc(N3CCN(C)CC3)c(F)cc2c1=O` the figure was 23.7 µM; with `CCN(CC)c1ccc(/C=N/Nc2nc3ccccc3[nH]2)c(O)c1`, 134 µM; with `CCOc1ccc(Nc2c3ccccc3nc3ccccc23)cc1`, 77.7 µM.
As for `Cc1cccc(Nc2cc(C)c3c(O)cccc3n2)c1C`, the IC50 is 39.2 µM.
To `O=C(CN1CCCC1)N/N=C/c1c(O)ccc2ccccc12` belongs 56.4 µM; to `O=[N+]([O-])c1cc(CN2CCCC2)c2cccnc2c1O`, 71.5 µM.
To `CCC(C)N1CCC2(CC1)N=c1c(c3c4c5c(C)c(O)c3c(O)c1=NC(=O)C(C)=CC=C[C@H](C)[C@H](O)[C@@H](C)[C@@H](O)[C@@H](C)[C@H](OC(C)=O)[C@H](C)[C@@H](OC)C=CO[C@@](C)(O5)C4=O)N2` (some centres not stated) belongs 2.72 µM.
With `CC(C)Oc1ccc(Cc2cnc(N)nc2N)cc1` the figure was 92 µM.
For the compound `CCCCCCCCCCCCCCCC[n+]1cccc2ccccc21`, the IC50 is 24.9 µM.
Regarding `CCCCCN=C(N)N/N=C/c1c[nH]c2ccc(OC)cc12`, the IC50 was 51.2 µM.
Take `CN1CCN(C(c2ccccn2)c2cc(Cl)c3cccnc3c2O)CC1` (configuration not stated): the IC50 is 95.8 µM.
To `Cc1nnc(N/N=C/c2ccccn2)[nH]c1=O` belongs 42 µM; to `C/C(=N\Nc1nc2ccccc2[nH]1)c1ccccn1`, 34.3 µM.
In the case of `COc1ccc(C(=O)N/N=C/c2sc3ccccc3c2O)cc1`, the IC50 was 107 µM.
To `Oc1cccc2ccc(Nc3ccccn3)nc12` belongs 18.9 µM; to `O=c1[nH]c2ccccc2n2c(=S)[nH]nc12`, 39.4 µM.
With `CCn1cc(C(=O)NCCO)c(=O)c2cc(F)c(N3CCN(C)CC3)cc21` the figure was 22.4 µM; with `Nc1nonc1-n1nnc(C(=O)N/N=C/c2cc(Br)ccc2O)c1CSC1=NCCS1`, 122 µM; with `CN1CCN(c2c(F)cc3c(=O)c(C(=O)O)cn4c3c2SCC4)CC1`, 4.43 µM and 4.66 µM.
With `O=C(C[n+]1cccc(CNC(=O)c2ccc(OC(F)F)cc2)c1)Nc1ccc(SC(F)F)cc1` the figure was 94.1 µM; with `Cc1cc(C)c(NC(=O)c2cn3c4c(c(N5CCN(C)CC5)c(F)cc4c2=O)OCC3C)c(C)c1` (configuration not stated), 20.3 µM; with `O=C(N/N=C/c1cc(O)ccc1Br)c1cccnc1`, 61.8 µM.
For `O=C(N/N=C/c1cc([N+](=O)[O-])ccc1O)C1CC1`, the IC50 was 66.5 µM.
With `CCn1cc(C(=O)O)c(=O)c2cc3c(cc21)OCO3` the figure was 43 µM.
In the case of `Cc1cc(C(=O)N/N=C/c2ccc([N+](=O)[O-])s2)n[nH]1`, the half-maximal inhibitory concentration (IC50) was 42.6 µM.
To `Oc1ccc(Cl)cc1Cc1cc(Cl)ccc1O` belongs 36.6 µM; to `O=[N+]([O-])c1ccc(Sc2nc3ccccc3o2)c([N+](=O)[O-])c1`, 117 µM.
With `CN(C)CCCN(C(=O)CCc1ccccc1)c1nc2ccc(Cl)cc2s1` the figure was 48.2 µM; with `Oc1ccc(CN2CCc3ccccc3C2)c2cccnc12`, 42.8 µM; with `CCn1cc(C(=O)O)c(=O)c2ccc(C)nc21`, 85.6 µM.
With `CC[n+]1c(/C=C/N(C)c2ccccc2)n(-c2ccccc2)c2ccc(-c3nc4ccccc4s3)cc21` the figure was 26.5 µM; with `CCCCCCCCCCOC(=O)Cn1c(COc2ccc(C)cc2)[n+](C)c2ccccc21`, 18.8 µM; with `CO[C@H]1C=CO[C@@]2(C)Oc3c(C)c(O)c4c(O)c(c(C=NN5CCN(C)CC5)c(O)c4c3C2=O)NC(=O)C(C)=CC=C[C@H](C)[C@H](O)[C@@H](C)[C@@H](O)[C@@H](C)[C@H](OC(C)=O)[C@@H]1C`, 6.31 µM.
For the compound `O=C(CSc1ccccn1)N/N=C/c1cc([N+](=O)[O-])ccc1O`, the IC50 was 58 µM.
To `NCCc1c(-c2ccccc2)n(-c2ccccc2)c2ccccc12` belongs 65.9 µM.
With `CCCCCNCC(=O)Nc1cccc(C(=O)Nc2cccc(C(F)(F)F)c2)c1` the figure was 94.4 µM.
To `CN1CCN(c2cc3c(cc2F)c(=O)c(C(=O)O)cn3CCF)CC1` belongs 0.37 µM.
In the case of `CCCCCCCCCCOC(=O)Cn1c(COc2ccc(Cl)cc2)[n+](C)c2ccccc21`, the IC50 is 19.5 µM.
For `Cc1ccc(-c2c[n+](CC(=O)Nc3nc(-c4ccc(F)cc4)cs3)c3n2CCC3)cc1`, the IC50 is 67.8 µM.
To `CN1/C(=C\C=C\C2=[N+](C)c3ccc4ccccc4c3C2(C)C)C(C)(C)c2ccccc21` belongs 10.2 µM.
Regarding `OC(c1cc(C(F)(F)F)nc2c(Cl)cc(Cl)cc12)C1CCCCN1` (configuration not stated), the IC50 was 101 µM.
With `CC(C)(C)/C(O)=C/c1nc2cc(Cl)ccc2oc1=O` the figure was 99.5 µM; with `CCCCCCCCCn1c2c(c(=N)c3c1CCC3)CCC2`, 37.2 µM.
With `CCCCOc1ccc(Br)cc1CSC(=N)N` the figure was 89.9 µM; with `O=[N+]([O-])c1ccc(O)c2ncccc12`, 3.48 µM.
With `CCCCCCCSc1cc(OC)c(CCNC)cc1OC` the figure was 55.7 µM.
In the case of `COc1c(N2CCN(C(=S)Nc3ccc(F)cc3)C(C)C2)c(F)cc2c(=O)c(C(=O)O)cn(C3CC3)c12` (configuration not stated), the IC50 is 7.48 µM.
As for `Oc1ccc(/C=N/Nc2ncc(Br)cn2)c(O)c1`, the IC50 is 111 µM.
Turning to `CC1CCc2c(N3CCC(O)CC3)c(F)cc3c(=O)c(C(=O)O)cn1c23` (configuration not stated), the IC50 is 6.24 µM.
`CCc1ccc(-c2nn(-c3ccccc3)cc2CSC(=N)N)cc1`: the IC50 was 37.1 µM.
As to `O=C(Nc1nc(-c2ccccn2)cs1)c1ccc(Cl)s1`, the IC50 is 69.3 µM.
With `CC(C(=O)c1ccc(-c2ccccc2)cc1)[n+]1cccc(NC(=O)c2ccccc2)c1` (configuration not stated) the figure was 78.3 µM.
With `Cc1c2ccncc2c(C)c2c1[nH]c1ccccc12` the figure was 26.3 µM; with `CCOc1cc(/C=N/N=C(N)N)ccc1OCc1ccc(Cl)cc1`, 45.9 µM; with `CCN1CCN(C(c2ccc(C(F)(F)F)cc2)c2ccc3cccnc3c2O)CC1` (configuration not stated), 55.1 µM.
Consider `CN1CCN(c2c(F)cc3c(=O)c(C(=O)O)cn4c3c2OCN4C)CC1`, for which the half-inhibitory concentration (IC50) is 0.26 µM.
To `O=[N+]([O-])c1ccc(CNC2CCCc3ccccc32)cc1` (configuration not stated) belongs 81 µM; to `C#CCOCCOCCOCCNc1nc(N2CCN(C(=O)CCCCCCCCCCNC(=O)[C@H](CCCN=C(N)N)n3cc(C[C@@H](C)CC)nn3)CC2)nc(N2CCN(C(=O)CCCCCCCCCCNC(=O)[C@@H]([C@H](C)CC)n3cc(CCCCCN)nn3)CC2)n1`, 83.1 µM; to `Cc1ccc(C(=O)Sc2cccccc2=O)cc1`, 21.4 µM.
With `O=C(N/N=C\C=C\c1ccc([N+](=O)[O-])o1)c1cccs1` the figure was 23.5 µM; with `O=C(N/N=C/c1cc(Cl)ccc1O)c1ccncc1`, 38 µM; with `O=C(Nc1ccccc1)Nc1ncc([N+](=O)[O-])s1`, 40.3 µM.
With `C[C@H]1c2cccc(O)c2C(O)=C2C(=O)[C@]3(O)C(O)=C(C(N)=O)C(=O)[C@@H](N(C)C)C3[C@@H](O)C21` (some centres not stated) the figure was 5.2 µM; with `Oc1cccc(Nc2nc(NCC3CCCO3)c3ccccc3n2)c1` (configuration not stated), 140 µM.
As to `Cc1ccc(Nc2nc(NCc3ccco3)c3ccccc3n2)cc1`, the IC50 was 44.1 µM.
Turning to `C[CH2][Hg][S]c1ccccc1C(=O)O`, the IC50 is 136 µM.
With `CC[n+]1c(/C=C/C=C/c2ccc(N(C)C)cc2)sc2ccccc21` the figure was 69.6 µM.
Take `Cc1ccc(C(=O)O)cc1N=Cc1cc(Br)cc(Br)c1O`: the IC50 is 93.1 µM.
To `C[C@H]1O[C@@H](n2cc(F)c(=O)[nH]c2=O)[C@H](O)[C@@H]1O` belongs 22.8 µM.
To `CN(C)[C@@H]1C(=O)C(C(N)=O)=C(O)[C@@]2(O)C(=O)C3=C(O)c4c(O)cccc4[C@@](C)(O)C3[C@H](O)C12` (some centres not stated) belongs 1.74 µM; to `O=C(NC(CO)C(O)c1ccc([N+](=O)[O-])cc1)C(Cl)Cl` (configuration not stated), 9.67 µM.
With `O=[N+]([O-])c1cc(CN2CCOCC2)c2cccnc2c1O` the figure was 44.2 µM.
